One may read the melting point as the temperature, or range, at which the solid turns liquid. Regarding `Cc1nnc2n1-c1sc(CCC(=O)O)cc1C(c1ccccc1Cl)=NC2C` (stereo not given), the melting point lay in the range of 202 to 204 °C. To `COc1cccc(N(CC(=O)OC(C)(C)C)C(=O)CCl)c1` belongs 110 °C; to `CC1(C)CC(N(CCCCO)S(C)(=O)=O)c2cc(OCc3ccccc3)ccc2O1` (stereo not given), 113 to 115 °C. To `COC(=O)c1cc(C(=O)O)nn1C` belongs 175 °C; to `C=CCc1cc2c(C)c(C#N)c(=O)oc2c(C)c1O`, 163 to 164 °C; to `Cc1cc2c(N3CCC(CCO)CC3)ccc(C#N)c2o1`, 106 to 107 °C. `Oc1ccc(-c2nnc(CSCCOc3ccccc3)o2)cc1` gave a melting point of 172 to 175 °C. To `Cn1nc(N)nc1NCCCOc1ccc(CN2CCCCC2)cc1` belongs 104 to 105 °C; to `O=C(NCCO)c1cccc(-c2cccc3nc(C(O)c4cccc(C(F)(F)F)c4)cn23)c1` (stereo not given), 169 °C.

In the case of `CC(C)(C)N1C(O)c2cccc(Cl)c2S1(=O)=O` (stereo not given), the melting point was in the range of 139 to 141 °C.

Take `CC#CCOc1cc(Oc2c(F)cccc2F)ncn1`: the melting point was 79.8 °C. Compound `CNc1ccc([N+](=O)[O-])c(C(=O)NCC2CCN(C(c3ccccc3)c3ccccc3)CC2)c1` returned a melting point of 185 °C. Compound `COc1cc(C)cc(-c2n[nH]cc2-c2ccnc(SC)n2)c1` showed a melting point of 143 °C.

The compound `CNC(=O)c1c(I)c(N)c(I)c(N(CCO)C(C)=O)c1I` gave a melting point of 197 °C.

As to `COC(=O)COc1c(Cl)cc(C(=O)CBr)cc1Cl`, the melting point was 89 to 90 °C. For the compound `C=C(C)C(=O)OCCOc1ccc(-c2ccccc2)cc1`, the melting point lay within 59 to 60 °C. Compound `CCCCCCCCCCCCc1cc2c(s1)NC(=O)CN=C2c1ccccc1Cl` displayed a melting point of 119 to 121 °C. With `O=C(O)C1=Cc2cc(Cl)cc(Cl)c2OC1C(F)(F)F` (stereo not given), the melting point lay within 166 to 168 °C. The compound `CCOCc1cccc2cc(C(N)=O)oc12` came in with a melting point of 133 to 134 °C. In turn, `O=C1NCCCN1c1ccccc1` yielded a melting point of 210 to 211 °C.

As for `COc1ccc(CNc2nnc(NCCCO)c3ccc(Cl)cc23)cc1Cl`, the melting point was 131 to 138 °C. `Cc1ccc(-c2[nH]c(-c3cnc4ccccc4c3)nc2C(=O)Nc2nccs2)cc1` registered a melting point above 250 °C. Take `Brc1cccc2ncn3ccnc3c12`: the melting point lay within 215 to 216 °C.

Take `CC(=O)C1=CCC2C3CCC4CC5OC5CC4(C)C3CCC12C` (stereo not given): the melting point fell in the range of 145 to 149 °C. To `CC(=O)COc1c([N+](=O)[O-])ccc(F)c1C(C)=O` belongs 64 to 65 °C; to `Cc1nc(-c2ccc(C(=N)NO)cc2)sc1C(=O)N[C@H](C)[C@](O)(Cn1cncn1)c1ccc(F)cc1F`, 135 to 148 °C. To `O=C1NC(=O)C(Cc2ccc(OCCn3cc(C(c4ccccc4)(c4ccccc4)c4ccccc4)c4ccccc43)cc2)S1` (stereo not given) belongs 66.6 to 70 °C; to `O[C@H]1CC[C@H](Nc2nccc(-n3ncc4c(Br)cccc43)n2)CC1`, 200 to 202 °C; to `NC(=O)c1ccccc1N1CCN(Cc2cn3cc(Cl)ccc3n2)CC1`, 178 to 179 °C. Consider `COCCC1CCCCCc2c1oc(=O)c(C(c1ccccc1)C1CC1)c2O` (stereo not given), for which the melting point fell in the range of 78 to 80 °C. To `COc1ccc2[nH]c3c(c2c1)C1C(=O)OC(=O)C1C(c1ccccc1Cl)C3` (stereo not given) belongs 189 to 191 °C. As for `O=C1c2ccccc2C(=O)N1c1ncc(C(Cl)Cl)nc1CO`, the melting point lay in the range of 188 to 189 °C. In turn, `COc1ccc(-c2oncc2CCCO)cc1OC` came in with a melting point of 55 to 56 °C. In turn, `COc1ccc(CN2C(=O)[C@@H](N3C(=O)c4ccccc4C3=O)[C@H]2c2ccc(Cl)cc2)c(OC)c1` (relative stereo) registered a melting point of 178 to 180 °C. On to `COc1cc(COc2nn(Cc3ccc(Oc4ccccc4)cc3)cc2C(=O)O)ccc1OCc1nc(-c2ccco2)oc1C`, for which the melting point lay in the range of 153 to 154 °C. `OCCOCC(O)c1ccc2ccccc2c1` (stereo not given) came in with a melting point of 105 to 106 °C. In turn, `CN(C)CC1CN(c2ccccc2)NC1=O` (stereo not given) had a melting point of 118 to 119 °C. `COc1ccc2cc(-c3noc4cc(OC)ccc34)ccc2c1`: the melting point lay within 141 to 143 °C.

Take `CCOC(=O)C(Cc1c[nH]c2ccccc12)(NC=O)C(=O)OCC`: the melting point fell in the range of 179 to 180 °C.

For the compound `CON=C(N)C(F)(F)C(O)(Cn1cncn1)c1ccc(F)cc1F` (stereo not given), the melting point was 114 °C. On to `NC(=O)c1cnn2c(-c3cccc(F)c3)ccnc12`, for which the melting point is 247 to 249 °C. To `N[C@@H](Cc1ccccc1)C(=O)NC(=O)N(CCCl)N=O` belongs 113 to 115 °C; to `CC1(C)O[C@@H](CN=C2OCc3ccccc32)[C@H](CN=C2OCc3ccccc32)O1`, 204 °C; to `Cc1ccccc1C1CN(C(=O)OC(C)(C)C)CCC1=O` (stereo not given), 97 to 99 °C. With `COc1ccc(-c2ncnc(C(F)(F)F)c2Cl)cc1`, the melting point fell in the range of 104 to 106 °C. Consider `CNC(=O)c1ccccc1Nc1nc(Nc2ccc3c(c2)CCN(C[C@@H](O)C(F)(F)F)CC3)ncc1Cl`, for which the melting point lay in the range of 188 to 191 °C. Turning to `CN(C)CCN1C(=O)N2[C@H](c3cccc(O)c3)c3[nH]c4ccc(Br)cc4c3C[C@@]2(C)C1=O` (racemic), the melting point lay within 286 to 288 °C.

`C[C@H]1[C@@H](C(C)(C)O)CCN1c1ccc(C#N)c(Cl)c1F` came in with a melting point of 125 to 126 °C.

For `CC(C)(CO)c1ccc(C(=O)Nc2cn3cc(-c4cn[nH]c4)ccc3n2)cc1`, the melting point is 293 to 296 °C. With `COc1cc2c(Nc3cc(CN4CCCC4)c(O)c(CN4CCCC4)c3)ncnc2c(OC)c1OC`, the melting point lay within 189 to 191 °C. In turn, `O=c1[nH]cnc2c(Br)sc(Br)c12` had a melting point above 250 °C. Consider `NS(=O)(=O)c1cc2cc3c(cc2n1S(=O)(=O)c1ccccc1)OCO3`, for which the melting point lay within 229 to 232 °C. In turn, `CN(CCO)C(=O)Nc1ccc2c(c1Cl)C(c1ccccc1F)=NCC(=O)N2C` registered a melting point of 218 to 220 °C. To `O=C(O)c1ccc2c(c1)C(=O)c1ccccc1OC2` belongs 264 to 269 °C.

Compound `CS(=O)(=O)N(C(=O)OCc1ccccc1)c1cc(O)ccc1OCc1ccccc1` returned a melting point of 138 to 140 °C.

As for `CCOC(=O)CC(=O)c1cc(Cl)ccc1O`, the melting point was in the range of 71.8 to 73.1 °C. The compound `O=C(C=Cc1cccs1)C=Cc1cccs1` returned a melting point of 115 to 117 °C. Compound `CCCCCCCC[C@H](N[C@@H](C)C(=O)N1C(=O)N(C)C[C@H]1C(=O)O)C(=O)OCC` registered a melting point of 85 to 86 °C. To `CCn1nc(-c2ccccc2)c(C(C)=O)c(Nc2cccc3ccc(C)nc23)c1=O` belongs 172 to 173 °C; to `NC(=O)c1cc(-c2ccc(F)cc2)ccc1O`, 206 to 207 °C; to `O=C1c2c(ccc(O)c2O)CC1C(=O)c1c(F)c(F)c(F)c(F)c1F` (stereo not given), 114 to 115 °C. For `CC(=O)C(C)(O)C1(C)OC(C)=CC1=O` (stereo not given), the melting point was in the range of 95 to 96 °C. `Cc1ccc(S(=O)(=O)OCC2COc3ccc4[nH]c(C(F)(F)F)nc4c3O2)cc1` (stereo not given): the melting point was in the range of 114 to 116 °C. `CC(=O)Nc1cccc(C(=O)NC(C)(C)C)c1` came in with a melting point of 194 to 195 °C.

As to `Cc1cccc(-c2nc(-c3cccc(C)c3)nc(-c3cccc(C)c3)n2)c1`, the melting point lay in the range of 151 to 152 °C.

For the compound `O=C1N=C(N2CCOCC2)SC1=Cc1cc(-c2ccc(O)c(C34CC5CC(CC(C5)C3)C4)c2)c(O)cc1O`, the melting point lay within 306 to 310 °C.

In the case of `CC(=N)NC(=O)Nc1ccccc1`, the melting point fell in the range of 204 to 206 °C. For the compound `CCCCc1nc2c(N)nc3ccccc3c2n1CCOCC#Cc1ccccc1`, the melting point fell in the range of 133 to 140 °C. `CCc1cc(OCc2ccc(C(=O)NS(=O)(=O)c3ccccc3C)cc2)c(C(=O)OC)c(CC)n1` had a melting point of 175 to 176 °C. To `OC(CNC1CCC1)c1cc(C(F)(F)F)nc2c(C(F)(F)F)cccc12` (stereo not given) belongs 145 °C; to `CCC(CC)n1cc(Cl)nc(N2CCc3cc(Cl)cc(Cl)c32)c1=O`, 168 to 170 °C. `CCCCCCCCCCC(C)(C)C(=O)NC1CCCNC(=O)C1` (stereo not given) showed a melting point of 41 to 42 °C. In turn, `C=C[C@H]1OC(C)(C)O[C@@H](CC(=O)OCc2ccccc2)[C@H]1NC(=O)OCc1ccccc1` (relative stereo) showed a melting point of 39 to 40.8 °C. For the compound `Cn1c(C(F)(F)F)cc(=O)n(-c2cc(OCSc3ccc(Cl)cc3)c(Cl)cc2F)c1=O`, the melting point is 141 to 142 °C.

For the compound `COc1ccc(C(=O)N[C@H]2C[C@@H](c3cc(NC(=O)Cc4cccc5ccccc45)n[nH]3)C2)cc1`, the melting point came out at 176 °C. Take `CCN1C(=O)C(=O)N(c2cc(Cl)ccc2C)C1=S`: the melting point fell in the range of 173 to 174 °C. Consider `O=C(Cc1ccncc1)c1ccc(Cl)cc1`, for which the melting point fell in the range of 95.5 to 97.3 °C. To `CCOC(=O)c1nc(C=Cc2cccc(Cl)c2)oc1C` belongs 116 to 117 °C; to `O=C(O)CCc1cc(CCNS(=O)(=O)c2ccc(Cl)cc2)cc(Cc2ccc(F)cc2)c1`, 85 to 87 °C; to `N#Cc1c(F)c(F)c(O)c(F)c1F`, 128 to 129 °C. On to `COc1ccc2c(c1OC)CC(c1ccccc1)CC2(O)CN` (stereo not given), for which the melting point fell in the range of 175 to 176 °C. To `O=C(Nc1c(Cl)cccc1Cl)C1CC1` belongs 166 to 169 °C; to `C=CCOC(=O)c1c(C)nc2c(cnn2CCOCC)c1N`, 38 to 40 °C. Take `N#Cc1nn(-c2c(Cl)cc(C(F)(F)F)cc2Cl)c(I)c1SC(F)(F)F`: the melting point lay within 187 to 188 °C. Turning to `CC(C)(C)C1=NN(c2ccc(C(=O)O)cc2)C(c2cccc(F)c2)C1` (stereo not given), the melting point amounted to 218 °C. `COc1cc(C(=O)C(=O)O)cc([N+](=O)[O-])c1O` had a melting point of 165 to 167 °C. On to `CN1CCN(c2cccc3c2C[C@H](NC(=O)c2ccc(N4CCOCC4)cc2)CO3)CC1`, for which the melting point is 210 to 212 °C.

As for `COC(=O)C(Oc1ccc(Cl)cc1)c1ccc(Oc2ccccc2)cc1` (stereo not given), the melting point was in the range of 99 to 102 °C. Compound `CCCCCCCCOc1ccc(C=[N+]([O-])C(C)(C)C)c(F)c1` yielded a melting point of 35.6 °C.

In turn, `CCOC(=O)N1CCC(Nc2nc3ccccc3[nH]2)CC1` came in with a melting point of 231 to 233 °C.

The values are drawn from a melting point compilation (Tetko et al.; mined from patent text by program, amines drawn as free bases though some values may be those of a salt).
